From PMC6008168 (Bioorganic & medicinal chemistry letters, 2017)

Assays:
[1] = Permeability, PAMPA assay; format: in vitro ADME
VDR = biological target: T1, VDR (Homo sapiens, UniProt P11473); assay: VDR transcription assay; format: cell-based; conditions: compared with GW0742
T1 sequence (P11473 1-427): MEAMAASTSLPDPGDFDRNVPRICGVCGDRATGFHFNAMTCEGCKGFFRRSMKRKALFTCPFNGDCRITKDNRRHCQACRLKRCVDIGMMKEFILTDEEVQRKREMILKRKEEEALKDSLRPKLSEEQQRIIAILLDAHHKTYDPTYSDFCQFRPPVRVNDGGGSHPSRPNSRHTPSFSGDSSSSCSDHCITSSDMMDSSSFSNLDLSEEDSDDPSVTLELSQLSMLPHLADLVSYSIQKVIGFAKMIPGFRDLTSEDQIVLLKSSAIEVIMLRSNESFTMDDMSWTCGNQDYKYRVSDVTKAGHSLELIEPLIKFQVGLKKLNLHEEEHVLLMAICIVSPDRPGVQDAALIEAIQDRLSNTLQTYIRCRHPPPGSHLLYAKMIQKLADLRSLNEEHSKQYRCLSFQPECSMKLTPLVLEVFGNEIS

PPARδ = biological target: T2, PPARδ (Homo sapiens, UniProt Q03181); assay: PPARδ transcription 2-hybrid assay; format: cell-based; conditions: up to 100 μM
T2 sequence (Q03181 211-439 limits assumed): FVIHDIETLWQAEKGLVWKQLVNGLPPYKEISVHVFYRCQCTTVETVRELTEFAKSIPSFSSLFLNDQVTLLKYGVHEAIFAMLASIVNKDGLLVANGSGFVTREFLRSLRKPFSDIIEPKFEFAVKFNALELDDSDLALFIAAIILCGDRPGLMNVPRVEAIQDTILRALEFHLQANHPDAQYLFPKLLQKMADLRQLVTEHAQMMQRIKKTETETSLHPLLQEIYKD

Toxicity, Cell-TiterGlo = format: cell-based; conditions: n.o.= not observed

| Structure (SMILES) | Papp [1] [×10⁻⁶ cm/s] | other results |
| --- | --- | --- |
| COc1cccc(-c2nc(C)c(COc3ccc(C(=O)O)cc3)o2)c1 [11b] | 170 | – |
| COC(=O)c1cccc(OCc2oc(-c3cccc(OC)c3)nc2C)c1 [5b] | 427 | – |
| COC(=O)c1cccc(OCc2oc(-c3ccccc3OC)nc2C)c1 [5a] | 380 | increased potency in respect to GW0742 (VDR antagonism) (VDR): 10 fold; activation of PPARδ-mediated transcription (in words) (PPARδ): inability to activate |
| COC(=O)Cc1ccc(OCc2oc(-c3cccc(OC)c3)nc2C)cc1 [7b] | 479 | activation of PPARδ-mediated transcription (in words) (PPARδ): without activating |
| COc1ccccc1-c1nc(C)c(COc2cccc(C(=O)O)c2)o1 [10a] | 263 | % Toxicity at 100 μM (Toxicity, Cell-TiterGlo): n.o. |
| COC(=O)c1ccccc1OCc1oc(-c2ccccc2OC)nc1C [4a] | 468 | – |
| COC(=O)c1ccccc1OCc1oc(-c2cccc(OC)c2)nc1C [4b] | 513 | – |
| COc1cccc(-c2nc(C)c(COc3ccc(CCC(=O)O)cc3)o2)c1 [13b] | 120 | – |
| COc1ccccc1-c1nc(C)c(COc2ccccc2C(=O)O)o1 [9a] | 234 | – |
| COc1ccccc1-c1nc(C)c(COc2ccc(CCC(=O)O)cc2)o1 [13a] | 257 | – |
| COc1cccc(-c2nc(C)c(COc3ccccc3C(=O)O)o2)c1 [9b] | 234 | – |
| COC(=O)c1ccc(OCc2oc(-c3cccc(OC)c3)nc2C)cc1 [6b] | 372 | – |
| COC(=O)CCc1ccc(OCc2oc(-c3cccc(OC)c3)nc2C)cc1 [8b] | 457 | – |
| COC(=O)c1ccc(OCc2oc(-c3ccccc3OC)nc2C)cc1 [6a] | 447 | – |
| COc1ccccc1-c1nc(C)c(COc2ccc(C(=O)O)cc2)o1 [11a] | 214 | % Toxicity at 100 μM (Toxicity, Cell-TiterGlo): n.o. |
| COC(=O)CCc1ccc(OCc2oc(-c3ccccc3OC)nc2C)cc1 [8a] | 457 | – |
| COc1cccc(-c2nc(C)c(COc3ccc(CC(=O)O)cc3)o2)c1 [12b] | 132 | – |
| COc1cccc(-c2nc(C)c(COc3cccc(C(=O)O)c3)o2)c1 [10b] | 132 | – |
| COc1ccccc1-c1nc(C)c(COc2ccc(CC(=O)O)cc2)o1 [12a] | 191 | % Toxicity at 100 μM (Toxicity, Cell-TiterGlo): n.o. |
| COC(=O)Cc1ccc(OCc2oc(-c3ccccc3OC)nc2C)cc1 [7a] | 275 | – |
